Starred links: 1 amine or outer side, 2 acyl side, 3 side chain; linkers in the order of their positions; H or OH if unused. Non-standard residues stand in square brackets, D forms with d. Residues, ends and D or L forms follow the SMILES beside them. Groups on a side chain read outwards from the residue. *: point of attachment. C20 diacid = O=C(O)CCCCCCCCCCCCCCCCCCC(=O)*; C18 diacid = O=C(O)CCCCCCCCCCCCCCCCC(=O)*; γGlu = O=C(O)[C@H](CCC(=O)[*:2])N[*:1]; αMeF = C[C@](N)(Cc1ccccc1)C(=O)O; AEEA = NCCOCCOCC(=O)O; Aib = CC(C)(N)C(=O)O
Assays:
[1] = target: human GLP-1 receptor (hGLP-1R) (Homo sapiens, UniProt P43220); assay: cAMP production (HTRF) in CHO cells expressing hGLP-1R; assay type: cell-based; set-up: expressed in transfected cells; details: for EC50: Table 7, peptides modified at position 20, cAMP in CHO hGLP-1R cells, geometric mean, read-out: hGLP-1R EC50; for % Relative Potency Ratio: Table 7, % GLP-1R activity relative to GLP-1 / % GlucR activity relative to glucagon
human GLP-1 receptor (hGLP-1R), sequence (P43220 24-463): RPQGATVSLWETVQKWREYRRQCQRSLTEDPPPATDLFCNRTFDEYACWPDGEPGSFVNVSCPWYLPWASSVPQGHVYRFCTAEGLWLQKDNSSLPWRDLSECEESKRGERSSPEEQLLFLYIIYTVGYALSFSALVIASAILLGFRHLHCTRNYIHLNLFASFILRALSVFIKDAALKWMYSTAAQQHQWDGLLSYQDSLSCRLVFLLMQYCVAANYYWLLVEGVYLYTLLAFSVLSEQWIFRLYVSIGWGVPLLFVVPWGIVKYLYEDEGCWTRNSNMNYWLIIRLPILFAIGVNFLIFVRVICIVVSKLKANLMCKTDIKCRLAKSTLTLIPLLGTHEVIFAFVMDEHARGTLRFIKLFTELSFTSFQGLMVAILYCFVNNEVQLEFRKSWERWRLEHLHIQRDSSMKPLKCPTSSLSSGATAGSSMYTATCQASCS
Method in brief: (§1)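 Cells were resuspended in assay buffer at batch-optimized density, typically 1×10^5 cells/mL for hGLP-1R and 2×10^5 cells/mL for hGCGR. After 30 min incubation at room temperature with compound, cAMP was measured by two-step HTRF. EC50 values came from 4-parameter logistic fits of % Delta F.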

[2] = target: human glucagon receptor (hGCGR) (Homo sapiens, UniProt P47871); assay: cAMP production (HTRF) in CHO cells expressing hGCGR; assay type: cell-based; set-up: expressed in transfected cells; details: Table 7, peptides modified at position 20; cAMP in CHO hGCGR cells; geometric mean; read-out: hGluc-R EC50
human glucagon receptor (hGCGR), sequence (P47871 26-477): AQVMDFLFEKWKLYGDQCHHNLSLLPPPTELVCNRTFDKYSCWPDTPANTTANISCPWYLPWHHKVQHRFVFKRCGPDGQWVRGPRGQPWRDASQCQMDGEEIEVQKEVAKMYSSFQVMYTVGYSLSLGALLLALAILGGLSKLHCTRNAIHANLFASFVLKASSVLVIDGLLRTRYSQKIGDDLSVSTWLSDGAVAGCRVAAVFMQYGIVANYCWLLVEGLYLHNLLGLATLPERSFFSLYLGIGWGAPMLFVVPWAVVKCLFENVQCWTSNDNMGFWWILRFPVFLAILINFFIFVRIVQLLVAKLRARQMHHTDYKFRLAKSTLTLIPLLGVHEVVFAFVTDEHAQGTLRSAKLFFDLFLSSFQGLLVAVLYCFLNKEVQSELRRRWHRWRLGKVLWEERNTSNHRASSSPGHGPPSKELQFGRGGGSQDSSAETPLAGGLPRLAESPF
Method in brief: as §1

Compound	EC50 [1] [nM]	% Relative Potency Ratio [1]	EC50 [2] [nM]
CC[C@H](C)[C@H](NC(=O)C(C)(C)NC(=O)[C@H](CCC(N)=O)NC(=O)[C@@H](NC(=O)[C@](C)(Cc1ccccc1)NC(=O)[C@H](CC(=O)O)NC(=O)[C@H](CCCCNC(=O)COCCOCCNC(=O)COCCOCCNC(=O)CC[C@H](NC(=O)CC[C@H](NC(=O)CCCCCCCCCCCCCCCCCCC(=O)O)C(=O)O)C(=O)O)NC(=O)[C@H](C)NC(=O)[C@H](C)NC(=O)[C@H](CCCNC(=N)N)NC(=O)[C@H](CO)NC(=O)[C@H](CC(=O)O)NC(=O)[C@H](CC(C)C)NC(=O)[C@](C)(Cc1ccccc1)NC(=O)[C@H](CCCCN)NC(=O)[C@H](CO)NC(=O)[C@@H](NC(=O)[C@H](CC(=O)O)NC(=O)[C@H](CO)NC(=O)[C@@H](NC(=O)[C@](C)(Cc1ccccc1)NC(=O)[C@H](CO)NC(=O)CNC(=O)[C@H](Cc1c[nH]cn1)NC(=O)[C@H](CO)NC(=O)[C@@H](N)Cc1c[nH]cn1)[C@@H](C)O)C(C)C)C(C)C)C(=O)N[C@@H](C)C(=O)N[C@@H](CC(N)=O)C(=O)N[C@H](C(N)=O)[C@@H](C)O [Peptide 281] (H-HSHGS[αMeF]TSDVSK[αMeF]LDSRAAK([AEEA-AEEA-γGlu-γGlu-C20 diacid])D[αMeF]VQ[Aib]IANT-NH2)	0.155	13.3	1.04
CC[C@H](C)[C@H](NC(=O)C(C)(C)NC(=O)[C@H](CCC(N)=O)NC(=O)[C@@H](NC(=O)[C@](C)(Cc1ccccc1)NC(=O)[C@H](CC(=O)O)NC(=O)[C@H](CCCCNC(=O)COCCOCCNC(=O)COCCOCCNC(=O)CC[C@H](NC(=O)CCCCCCCCCCCCCCCCC(=O)O)C(=O)O)NC(=O)[C@H](C)NC(=O)[C@H](C)NC(=O)[C@H](CCCNC(=N)N)NC(=O)[C@H](CO)NC(=O)[C@H](CC(=O)O)NC(=O)[C@H](CC(C)C)NC(=O)[C@](C)(Cc1ccccc1)NC(=O)[C@H](CCCCN)NC(=O)[C@H](CO)NC(=O)[C@@H](NC(=O)[C@H](CC(=O)O)NC(=O)[C@H](CO)NC(=O)[C@@H](NC(=O)[C@](C)(Cc1ccccc1)NC(=O)[C@H](CO)NC(=O)CNC(=O)[C@H](Cc1c[nH]cn1)NC(=O)[C@H](CO)NC(=O)[C@@H](N)Cc1c[nH]cn1)[C@@H](C)O)C(C)C)C(C)C)C(=O)N[C@@H](C)C(=O)N[C@@H](CC(N)=O)C(=O)N[C@H](C(N)=O)[C@@H](C)O [Peptide 284] (H-HSHGS[αMeF]TSDVSK[αMeF]LDSRAAK([AEEA-AEEA-γGlu-C18 diacid])D[αMeF]VQ[Aib]IANT-NH2)	0.0434	5.4	0.119
CC[C@H](C)[C@H](NC(=O)C(C)(C)NC(=O)[C@H](CCC(N)=O)NC(=O)[C@@H](NC(=O)[C@](C)(Cc1ccccc1)NC(=O)[C@H](CC(=O)O)NC(=O)[C@H](CCCCNC(=O)COCCOCCNC(=O)COCCOCCNC(=O)CC[C@H](NC(=O)CCCCCCCCCCCCCCCCC(=O)O)C(=O)O)NC(=O)[C@H](C)NC(=O)[C@H](C)NC(=O)[C@H](CCCNC(=N)N)NC(=O)[C@H](CO)NC(=O)[C@H](CC(=O)O)NC(=O)[C@H](CC(C)C)NC(=O)[C@](C)(Cc1ccccc1)NC(=O)[C@H](CCCCN)NC(=O)[C@H](CO)NC(=O)[C@@H](NC(=O)[C@H](CC(=O)O)NC(=O)[C@H](CO)NC(=O)[C@@H](NC(=O)[C@H](Cc1ccccc1)NC(=O)[C@H](CO)NC(=O)CNC(=O)[C@H](Cc1c[nH]cn1)NC(=O)C(C)(C)NC(=O)[C@@H](N)Cc1c[nH]cn1)[C@@H](C)O)C(C)C)C(C)C)C(=O)N[C@@H](C)C(=O)N[C@@H](CC(N)=O)C(=O)N[C@H](C(N)=O)[C@@H](C)O [Peptide 285] (H-H[Aib]HGSFTSDVSK[αMeF]LDSRAAK([AEEA-AEEA-γGlu-C18 diacid])D[αMeF]VQ[Aib]IANT-NH2)	0.301	0.6	0.087
CC[C@H](C)[C@H](NC(=O)[C@H](Cc1c[nH]c2ccccc12)NC(=O)[C@H](CCC(N)=O)NC(=O)[C@@H](NC(=O)[C@H](Cc1ccccc1)NC(=O)[C@H](CC(=O)O)NC(=O)[C@H](CCCCNC(=O)COCCOCCNC(=O)COCCOCCNC(=O)CC[C@H](NC(=O)CCCCCCCCCCCCCCCCC(=O)O)C(=O)O)NC(=O)[C@H](C)NC(=O)[C@H](C)NC(=O)[C@H](CCCNC(=N)N)NC(=O)[C@H](CO)NC(=O)[C@H](CC(=O)O)NC(=O)[C@H](CC(C)C)NC(=O)[C@H](Cc1ccc(O)cc1)NC(=O)[C@H](CCCCN)NC(=O)[C@H](CO)NC(=O)[C@@H](NC(=O)[C@H](CC(=O)O)NC(=O)[C@H](CO)NC(=O)[C@@H](NC(=O)[C@](C)(Cc1ccccc1)NC(=O)[C@H](CO)NC(=O)CNC(=O)[C@H](Cc1c[nH]cn1)NC(=O)C(C)(C)NC(=O)[C@@H](N)Cc1c[nH]cn1)[C@@H](C)O)C(C)C)C(C)C)C(=O)N[C@@H](C)C(=O)N[C@@H](CC(N)=O)C(=O)N[C@H](C(N)=O)[C@@H](C)O [Peptide 292] (H-H[Aib]HGS[αMeF]TSDVSKYLDSRAAK([AEEA-AEEA-γGlu-C18 diacid])DFVQWIANT-NH2)	0.0287	1.4	0.0204
CC[C@H](C)[C@H](NC(=O)[C@H](Cc1c[nH]c2ccccc12)NC(=O)[C@H](CCC(N)=O)NC(=O)[C@@H](NC(=O)[C@H](Cc1ccccc1)NC(=O)[C@H](CC(=O)O)NC(=O)[C@H](CCCCNC(=O)COCCOCCNC(=O)COCCOCCNC(=O)CC[C@H](NC(=O)CCCCCCCCCCCCCCCCC(=O)O)C(=O)O)NC(=O)[C@H](C)NC(=O)[C@H](C)NC(=O)[C@H](CCCNC(=N)N)NC(=O)[C@H](CO)NC(=O)[C@H](CC(=O)O)NC(=O)[C@H](CC(C)C)NC(=O)[C@](C)(Cc1ccccc1)NC(=O)[C@H](CCCCN)NC(=O)[C@H](CO)NC(=O)[C@@H](NC(=O)[C@H](CC(=O)O)NC(=O)[C@H](CO)NC(=O)[C@@H](NC(=O)[C@H](Cc1ccccc1)NC(=O)[C@H](CO)NC(=O)CNC(=O)[C@H](Cc1c[nH]cn1)NC(=O)C(C)(C)NC(=O)[C@@H](N)Cc1c[nH]cn1)[C@@H](C)O)C(C)C)C(C)C)C(=O)N[C@@H](C)C(=O)N[C@@H](CC(N)=O)C(=O)N[C@H](C(N)=O)[C@@H](C)O [Peptide 293] (H-H[Aib]HGSFTSDVSK[αMeF]LDSRAAK([AEEA-AEEA-γGlu-C18 diacid])DFVQWIANT-NH2)	0.092	0.7	0.0335

More lines, in order of falling EC50 [1], values ahead:

EC50 [1] [nM]	% Relative Potency Ratio [1]	EC50 [2] [nM]	Compound
1.51	1.1	0.847	CC[C@H](C)[C@H](NC(=O)[C@H](Cc1c[nH]c2ccccc12)NC(=O)[C@H](CCC(N)=O)NC(=O)[C@@H](NC(=O)[C@](C)(Cc1ccccc1)NC(=O)[C@H](CC(=O)O)NC(=O)[C@H](CCCCNC(=O)COCCOCCNC(=O)COCCOCCNC(=O)CC[C@H](NC(=O)CC[C@H](NC(=O)CCCCCCCCCCCCCCCCCCC(=O)O)C(=O)O)C(=O)O)NC(=O)[C@H](C)NC(=O)[C@H](C)NC(=O)[C@H](CCCNC(=N)N)NC(=O)[C@H](CO)NC(=O)[C@H](CC(=O)O)NC(=O)[C@H](CC(C)C)NC(=O)[C@H](Cc1ccc(O)cc1)NC(=O)[C@H](CCCCN)NC(=O)[C@H](CO)NC(=O)[C@@H](NC(=O)[C@H](CC(=O)O)NC(=O)[C@H](CO)NC(=O)[C@@H](NC(=O)[C@H](Cc1ccccc1)NC(=O)[C@H](CO)NC(=O)CNC(=O)[C@H](Cc1c[nH]cn1)NC(=O)C(C)(C)NC(=O)[C@@H](N)Cc1c[nH]cn1)[C@@H](C)O)C(C)C)C(C)C)C(=O)N[C@@H](C)C(=O)N[C@@H](CC(N)=O)C(=O)N[C@H](C(N)=O)[C@@H](C)O [Peptide 291] (H-H[Aib]HGSFTSDVSKYLDSRAAK([AEEA-AEEA-γGlu-γGlu-C20 diacid])D[αMeF]VQWIANT-NH2)
0.0427	1.2	0.0269	CC[C@H](C)[C@H](NC(=O)[C@H](Cc1c[nH]c2ccccc12)NC(=O)[C@H](CCC(N)=O)NC(=O)[C@@H](NC(=O)[C@](C)(Cc1ccccc1)NC(=O)[C@H](CC(=O)O)NC(=O)[C@H](CCCCNC(=O)COCCOCCNC(=O)COCCOCCNC(=O)CC[C@H](NC(=O)CCCCCCCCCCCCCCCCC(=O)O)C(=O)O)NC(=O)[C@H](C)NC(=O)[C@H](C)NC(=O)[C@H](CCCNC(=N)N)NC(=O)[C@H](CO)NC(=O)[C@H](CC(=O)O)NC(=O)[C@H](CC(C)C)NC(=O)[C@](C)(Cc1ccccc1)NC(=O)[C@H](CCCCN)NC(=O)[C@H](CO)NC(=O)[C@@H](NC(=O)[C@H](CC(=O)O)NC(=O)[C@H](CO)NC(=O)[C@@H](NC(=O)[C@](C)(Cc1ccccc1)NC(=O)[C@H](CO)NC(=O)CNC(=O)[C@H](Cc1c[nH]cn1)NC(=O)C(C)(C)NC(=O)[C@@H](N)Cc1c[nH]cn1)[C@@H](C)O)C(C)C)C(C)C)C(=O)N[C@@H](C)C(=O)N[C@@H](CC(N)=O)C(=O)N[C@H](C(N)=O)[C@@H](C)O [Peptide 288] (H-H[Aib]HGS[αMeF]TSDVSK[αMeF]LDSRAAK([AEEA-AEEA-γGlu-C18 diacid])D[αMeF]VQWIANT-NH2)
0.0316	3.3	0.053	CC[C@H](C)[C@H](NC(=O)C(C)(C)NC(=O)[C@H](CCC(N)=O)NC(=O)[C@@H](NC(=O)[C@](C)(Cc1ccccc1)NC(=O)[C@H](CC(=O)O)NC(=O)[C@H](CCCCNC(=O)COCCOCCNC(=O)COCCOCCNC(=O)CC[C@H](NC(=O)CCCCCCCCCCCCCCCCC(=O)O)C(=O)O)NC(=O)[C@H](C)NC(=O)[C@H](C)NC(=O)[C@H](CCCNC(=N)N)NC(=O)[C@H](CO)NC(=O)[C@H](CC(=O)O)NC(=O)[C@H](CC(C)C)NC(=O)[C@H](Cc1ccc(O)cc1)NC(=O)[C@H](CCCCN)NC(=O)[C@H](CO)NC(=O)[C@@H](NC(=O)[C@H](CC(=O)O)NC(=O)[C@H](CO)NC(=O)[C@@H](NC(=O)[C@](C)(Cc1ccccc1)NC(=O)[C@H](CO)NC(=O)CNC(=O)[C@H](Cc1c[nH]cn1)NC(=O)C(C)(C)NC(=O)[C@@H](N)Cc1c[nH]cn1)[C@@H](C)O)C(C)C)C(C)C)C(=O)N[C@@H](C)C(=O)N[C@@H](CC(N)=O)C(=O)N[C@H](C(N)=O)[C@@H](C)O [Peptide 286] (H-H[Aib]HGS[αMeF]TSDVSKYLDSRAAK([AEEA-AEEA-γGlu-C18 diacid])D[αMeF]VQ[Aib]IANT-NH2; N-terminus assumed)

Reference: patent US20250353891A1 (MEDIMMUNE LIMITED, priority 2022, published 2025)
